From patent US12343416B2, “Skin engaging member for razor cartridge comprising skin active ingredient” (BIC-VIOLEX S.A., priority 2019, dated 2025)

What was measured:
[1] = assay type: physicochemical
Source text: Again, without being bound to theory, one could explain this thermostability by the low volatility related with high molecular weight. Indeed, Glycyrrhizic acid and its salts are widely used in food applications that are intended to be baked and keeping the sweetness.

[2] = Retention of skin active ingredient after extrusion of the skin engaging member (process tolerance / thermal stability); assay type: physicochemical; settings: initial concentration 1% in HIPS/PEG/BHT blend; heated to melt and extruded via rotating screw; 150° C. to 300° C., 250-2000 bar
Method: Therefore and more particularly, throughout the present description and claims, the expression “thermally tolerant” or “thermally stable” or “process tolerant” should thus be understood that the skin engaging member retains the contained skin active ingredient, after a thermal treatment/processing at about 150 to 300° C., from 2 to 15 minutes and pressure conditions between 250-2000 bar, in processes such as extrusion or injection or injection-molding, in concentration that is detected quantitatively at the end product/article, by applying analytical chemistry methods, such as liquid chromatography. In embodiments that the skin engaging member comprises skin active ingredient capable of treating and/or preventing skin redness or skin irritation and being selected from the group consisting of a) at least one terpenic acid derivative, b) strombine or salt of strombine, combined with a clay, and c) mixtures thereof, the concentration of the skin active ingredient retained after the thermal treatment/processing is about 0.001-100%, particularly 20-80%, more particularly 20-70%, of the initial quantity of skin active ingredient added. […]
The quantity of the skin active ingredient in the skin engaging member can be measured/evaluated by (chromatographic) methods known to the skilled person depending on the nature of the active ingredient. […]

Compound	heat stability/tolerance [1]	reduction of the amount of skin active ingredient compared to the initial concentration, measured in the final skin engaging member [2]
CC1(C)[C@@H](O[C@H]2O[C@H](C(=O)O)[C@@H](O)[C@H](O)[C@H]2O[C@@H]2O[C@H](C(=O)O)[C@@H](O)[C@H](O)[C@H]2O)CC[C@]2(C)[C@H]3C(=O)C=C4[C@@H]5C[C@@](C)(C(=O)O)CC[C@]5(C)CC[C@@]4(C)[C@]3(C)CC[C@@H]12 [Glycyrrhizic acid, (3-beta, 20-beta)-20-carboxy-11-oxo-30-norolean-12-en-β-yl 2-O-beta-D-glucopyranuronosyl-alpha-D-glucopyranosiduronic]	heat stable/tolerant	
C[C@H]1[C@H](C)CC[C@]2(C)CC[C@]3(C)C(=CC[C@@H]4[C@@]5(C)CC[C@@H](O)[C@](C)(C(=O)O)[C@@H]5CC[C@]43C)[C@H]12 [boswellic acid]		52.2%
Dipotassium Glycyrrhizinate/Glycyrrhizate	heat stable/tolerant	30%
